# Reference: US20240336608A1, “IL4I1 INHIBITORS AND METHODS OF USE” (Merck Sharp & Dohme LLC, priority 2023, published 2024)
# Target: T1, recombinant IL4I1 (Homo sapiens, UniProt Q96RQ9)
# T1 construct: purchased R&D Systems 5684-AO-020
# T1 sequence (Q96RQ9 22-567): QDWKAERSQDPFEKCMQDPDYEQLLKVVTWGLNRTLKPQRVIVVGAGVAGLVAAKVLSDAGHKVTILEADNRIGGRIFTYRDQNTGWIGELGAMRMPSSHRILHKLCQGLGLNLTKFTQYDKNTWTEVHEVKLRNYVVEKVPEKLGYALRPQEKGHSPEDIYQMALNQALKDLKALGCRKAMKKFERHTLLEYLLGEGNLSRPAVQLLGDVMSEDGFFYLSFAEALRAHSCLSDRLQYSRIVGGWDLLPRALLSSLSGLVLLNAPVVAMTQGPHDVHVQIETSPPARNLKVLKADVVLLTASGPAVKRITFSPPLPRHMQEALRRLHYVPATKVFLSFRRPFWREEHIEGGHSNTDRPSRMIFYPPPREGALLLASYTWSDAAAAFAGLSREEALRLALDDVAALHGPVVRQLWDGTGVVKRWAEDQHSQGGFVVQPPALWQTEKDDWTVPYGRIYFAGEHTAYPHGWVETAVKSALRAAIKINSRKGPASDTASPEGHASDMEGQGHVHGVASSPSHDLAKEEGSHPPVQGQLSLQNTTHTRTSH
# Assay: IL4I1 Enzymatic Assay (Amplex Red/HRP coupled detection of H2O2, fluorescence)
# Assay type: biochemical
# Conditions: 1 nM recombinant IL4I1; four-hour pre-incubation with compound; 1 mM each Phe, Tyr, Trp; ten-point titration
# Outline: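 H2O2 output was coupled to resorufin fluorescence (ex 544/em 590) via 0.05 mM Amplex Red and 1 U/mL HRP. Substrate: Phe, Tyr, Trp at 1 mM each; enzyme 1 nM, 4 h compound pre-incubation, 120 min reaction, pH 7.0 Hepes. EC50 by nonlinear four-parameter regression, 1:3 ten-point titration.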
row,SMILES,EC50
1,"Cc1nc(S(C)(=O)=O)ccc1-n1cc(C(=O)NCc2nnc(-c3ccccc3)s2)nn1 [Example 341, 1-(2-methyl-6-(methylsulfonyl)pyridin-3-yl)-N-((5-phenyl-1,3,4-thiadiazol-2-yl)methyl)-1H-1,2,3-triazole-4-carboxamide]",271 nM
2,"CC(O)c1cc(C(=O)NCc2nnc(-c3ccccc3)s2)on1 (single isomer, unassigned) [Example 330, 3-(1-hydroxyethyl)-N-((5-phenyl-1,3,4-thiadiazol-2-yl)methyl)isoxazole-5-carboxamide]",69 nM
3,"Cc1ccc(-n2cc(C(=O)NCc3nnc(-c4ccccc4)s3)nn2)c(C)n1 [Example 1, 1-(2,6-dimethylpyridin-3-yl)-N-((5-phenyl-1,3,4-thiadiazol-2-yl)methyl)-1H-1,2,3-triazole-4-carboxamide]",15 nM
4,"C[C@@H](CO)Cn1cc(C(=O)NCc2nnc(-c3ccccc3)s2)nn1 [Example 75, (R)-1-(3-hydroxy-2-methylpropyl)-N-((5-phenyl-1,3,4-thiadiazol-2-yl)methyl)-1H-1,2,3-triazole-4-carboxamide]",17 nM
5,"O=C(NCc1nnc(-c2ccccc2)s1)c1cn(C2(CF)CC2)nn1 [Example 151, 1-(1-(fluoromethyl)cyclopropyl)-N-((5-phenyl-1,3,4-thiadiazol-2-yl)methyl)-1H-1,2,3-triazole-4-carboxamide]",25 nM
6,"Cc1ccc(-n2cc(C(=O)NCc3ccc(-n4nccn4)cn3)nn2)c(C)n1 [Example 216, 1-(2,6-dimethylpyridin-3-yl)-N-{[5-(2H-1,2,3-triazol-2-yl)pyridin-2-yl]methyl}-1H-1,2,3-triazole-4-carboxamide]",326 nM
7,"O=C(NCc1nnc(-c2ccccc2)s1)c1cn(Cc2cn[nH]c2)nn1 [Example 164, 1-((1H-pyrazol-4-yl)methyl)-N-((5-phenyl-1,3,4-thiadiazol-2-yl)methyl)-1H-1,2,3-triazole-4-carboxamide]",17 nM
8,"CC1CC1n1cc(C(=O)NCc2nnc(-c3ccccc3)s2)nn1 (single isomer, unassigned) [Example 132, Cis-1-(2-methylcyclopropyl)-N-((5-phenyl-1,3,4-thiadiazol-2-yl)methyl)-1H-1,2,3-triazole-4-carboxamide]",7 nM
9,"Cc1nc(C(N)=O)ccc1-n1cc(C(=O)NCc2nnc(-c3ccccc3)s2)nn1 [Example 333, 6-methyl-5-(4-(((5-phenyl-1,3,4-thiadiazol-2-yl)methyl)carbamoyl)-1H-1,2,3-triazol-1-yl)picolinamide]",6 nM
10,"Cc1ccc(-n2cc(C(=O)NCc3ccc(-c4cccc(F)c4)nn3)nn2)c(C)n1 [Example 120, 1-(2,6-dimethylpyridin-3-yl)-N-((6-(3-fluorophenyl)pyridazin-3-yl)methyl)-1H-1,2,3-triazole-4-carboxamide]",123 nM
11,"CC(C)c1cc(C(=O)NCc2nnc(-c3ccccc3)s2)on1 [Example 49, 3-isopropyl-N-[(5-phenyl-1,3,4-thiadiazol-2-yl)methyl]isoxazole-5-carboxamide]",22 nM
12,"O=C(NCc1nnc(-c2ccccc2)s1)c1cn(CC2CCCCO2)nn1 (stereo not shown) [Example 83, N-((5-phenyl-1,3,4-thiadiazol-2-yl)methyl)-1-((tetrahydro-2H-pyran-2-yl)methyl)-1H-1,2,3-triazole-4-carboxamide]",361 nM
13,"O=C(NCc1nnc(-c2ccccc2)s1)c1cn(C2CCOC2)nn1 (stereo not shown) [Example 305, N-((5-phenyl-1,3,4-thiadiazol-2-yl)methyl)-1-(tetrahydrofuran-3-yl)-1H-1,2,3-triazole-4-carboxamide]",29 nM
14,"C[C@@H](C1COC1)n1cc(C(=O)NCc2nnc(-c3ccccc3)s2)nn1 [Example 148, (S)-1-(1-(oxetan-3-yl)ethyl)-N-((5-phenyl-1,3,4-thiadiazol-2-yl)methyl)-1H-1,2,3-triazole-4-carboxamide]",164 nM
15,"Cc1ccc(-n2cc(C(=O)NCc3ccc(C4CCCCC4)nn3)nn2)c(C)n1 [Example 326, N-((6-cyclohexylpyridazin-3-yl)methyl)-1-(2,6-dimethylpyridin-3-yl)-1H-1,2,3-triazole-4-carboxamide]",263 nM
16,"COc1c(C(=O)NCc2nnc(-c3ccccc3)s2)csc1Cl [Example 41, 5-chloro-4-methoxy-N-[(5-phenyl-1,3,4-thiadiazol-2-yl)methyl]thiophene-3-carboxamide]",59 nM
17,"O=C(NCc1cc(-c2ccccc2)no1)c1cn(CC(F)F)nn1 [Example 291, 1-(2,2-difluoroethyl)-N-((3-phenylisoxazol-5-yl)methyl)-1H-1,2,3-triazole-4-carboxamide]",12 nM

row,SMILES,EC50
1,"O=C(NCc1nnc(-c2ccccc2)s1)c1cc(C2CC2)on1 [Example 35, 5-cyclopropyl-N-[(5-phenyl-1,3,4-thiadiazol-2-yl)methyl]isoxazole-3-carboxamide]",8 nM
2,"O=C(NCc1nnc(-c2ccccc2)s1)c1cc(C2CC2)n[nH]1 [Example 33, 3-cyclopropyl-N-[(5-phenyl-1,3,4-thiadiazol-2-yl)methyl]-1H-pyrazole-5-carboxamide]",170 nM
3,"O=C(NCc1nnc(-c2ccccc2)s1)c1cn([C@@H]2C[C@@H]2C(F)F)nn1 (single isomer, unassigned) [Example 146, cis-1-(-2-(difluoromethyl)cyclopropyl]-N-[(5-phenyl-1,3,4-thiadiazol-2-yl)methyl]-1H-1,2,3-triazole-4-carboxamide]",244 nM
4,"Cc1cc(C)c(C(=O)NCc2nnc(-c3ccccc3)s2)o1 [Example 57, 3,5-dimethyl-N-[(5-phenyl-1,3,4-thiadiazol-2-yl)methyl]furan-2-carboxamide]",974 nM
5,"Cc1ccc(-n2cc(C(=O)NCc3ccc(-c4ccccc4)nn3)nn2)c(C)n1 [Example 261, 1-(2,6-dimethylpyridin-3-yl)-N-((6-phenylpyridazin-3-yl)methyl)-1H-1,2,3-triazole-4-carboxamide]",25 nM
6,"COCC[C@@H](C)n1cc(C(=O)NCc2nnc(-c3ccccc3)s2)nn1 [Example 65, (R)-1-(4-methoxybutan-2-yl)-N-((5-phenyl-1,3,4-thiadiazol-2-yl)methyl)-1H-1,2,3-triazole-4-carboxamide]",68 nM
7,"O=C(NCc1nnc(-c2ccccc2)s1)c1cn(Cc2ccccc2)nn1 [Example 241, 1-benzyl-N-((5-phenyl-1,3,4-thiadiazol-2-yl)methyl)-1H-1,2,3-triazole-4-carboxamide]",11 nM
8,"CC(C)c1cc(C(=O)NCc2nnc(-c3ccccc3)s2)n[nH]1 [Example 2, 5-isopropyl-N-[(5-phenyl-1,3,4-thiadiazol-2-yl)methyl]-1H-pyrazole-3-carboxamide]",197 nM
9,"O=C(NCc1cc(-c2ccccc2)on1)c1cn(CC(F)F)nn1 [Example 292, 1-(2,2-difluoroethyl)-N-((5-phenylisoxazol-3-yl)methyl)-1H-1,2,3-triazole-4-carboxamide]",5 nM
10,"O=C(NCc1nnc(-c2ccccc2)s1)c1cn(C(F)(F)F)nn1 [Example 274, N-((5-phenyl-1,3,4-thiadiazol-2-yl)methyl)-1-(trifluoromethyl)-1H-1,2,3-triazole-4-carboxamide]",31 nM
11,"O=C(NCc1nnc(-c2ccccc2)s1)c1cn([C@@H]2COC[C@H]2CO)nn1 (stereo in doubt) [Example 147, 1-[(3S,4R)-4-(hydroxymethyl)oxolan-3-yl]-N-[(5-phenyl-1,3,4-thiadiazol-2-yl)methyl]-1H-1,2,3-triazole-4-carboxamide]",325 nM
12,"Cc1[nH]nc(C(=O)NCc2nnc(-c3ccccc3)s2)c1F [Example 46, 4-fluoro-5-methyl-N-[(5-phenyl-1,3,4-thiadiazol-2-yl)methyl]-1H-pyrazole-3-carboxamide]",92 nM
13,"Cc1oc(C)c(C(=O)NCc2nnc(-c3ccccc3)s2)c1C [Example 40, 2,4,5-trimethyl-N-[(5-phenyl-1,3,4-thiadiazol-2-yl)methyl]furan-3-carboxamide]",266 nM
14,"O=C(NCc1nnc(-c2ccccc2)s1)c1cc(C(F)(F)F)no1 [Example 214, N-[(5-phenyl-1,3,4-thiadiazol-2-yl)methyl]-3-(trifluoromethyl)-1,2-oxazole-5-carboxamide]",251 nM
15,"Cc1ccc(-n2cc(C(=O)NCc3ccc(-n4nccn4)nn3)nn2)c(C)n1 (single isomer, unassigned) [Example 344, N-((6-(2H-1,2,3-triazol-2-yl)pyridazin-3-yl)methyl)-1-(2,6-dimethylpyridin-3-yl)-1H-1,2,3-triazole-4-carboxamide]",67 nM
16,"Cc1ccc(-n2cc(C(=O)NCc3ccc(-c4ccsc4)nn3)nn2)c(C)n1 [Example 118, 1-(2,6-dimethylpyridin-3-yl)-N-((6-(thiophen-3-yl)pyridazin-3-yl)methyl)-1H-1,2,3-triazole-4-carboxamide]",31 nM
17,"C[C@H](CCF)n1cc(C(=O)NCc2nnc(-c3ccccc3)s2)nn1 [Example 170, (R)-1-(4-fluorobutan-2-yl)-N-((5-phenyl-1,3,4-thiadiazol-2-yl)methyl)-1H-1,2,3-triazole-4-carboxamide]",34 nM
